pIC50: −log10 of the molar value. Where two headings read alike, the source gives them in different places.
Experiments:
[1] = Horizontal Screen Test for Determining Benzodiazepine Antagonism; format: in vivo, male CD1 mice; conditions: mice; for percent antagonism: given parenterally with chlordiazepoxide (28 mg/kg, sc), values above 0 considered active
Method: Some of the compounds of the invention were tested for their ability to antagonize the locomotor discoordinating property of chlordiazepoxide. Male CD1 mice, fasted for at least 16 hours but allowed access to water except during the period of observation, were placed on a horizontally-held screen (mesh size 1/4", wire diameter approximately 1.0 mm). The screen was inverted and mice which successfully climb to the top side of the screen within one minute were selected for testing. Selected mice were weighed and divided into equal groups. Test compounds or vehicle were administered to those mice parenterally at the same time as chlordrazepoxide (28 mg/kg, sc). At a pre-determined interval (or intervals) after administration, the animals were tested for their ability to climb to the top side of the inverted screen (pass the test). Activity is reported as the percent antagonism of the number of animals that fail the test in each treatment group relative to the corresponding chlordiazepoxide-treated group. Percent Antagonism =100×[(Percent Fail in Chlordiazepoxide Group)-(Percent Fail in Test Group)/Percent Fail in Chlordiazepoxide Group]. […] The percent antagonism values for the compounds of the present invention that were tested are as follows: CP 113=0, CP 53=0, CP 59=0,CP 102=0,[…],CP 7=17,CP 8=17,CP 9=30,CP 10=30, CP 11=92, CP 12=92, CP 13=100. Compounds having values above 0 were considered active as agents for treating drug overdoses, particularly overdoses of benzodiazepine.

[2] = Horizontal Screen Test for Motor Coordination; format: in vivo, male CD1 mice; conditions: Table 1, mice, parenteral, >300 = active dose not determined; for ED50: Mus musculus, read-out: Horiz. Screen ED50
Method: Some of the compounds of the invention were tested for their ability to act as general CNS agents and particularity as skeletal muscle relaxants and hypnotics/sedatives (Coughenour, L. L. et al. Pharm. Biochem. Behav. 1977, 6, 351). Male CD1 mice, fasted for at least 16 hours but allowed access to water except during the period of observation, were placed on a horizontally-held screen (mesh size 1/4", wire diameter approximately 1.0 mm). The screen was inverted and mice which successfully climb to the top side of the screen within one minute were selected for testing. Selected mice were weighed and divided into equal groups. Test compounds or vehicle were administered to those mice parenterally. At a pre-determined interval (or intervals) after administration, the animals were tested for their ability to climb to the top side of the inverted screen (pass the test). Activity is reported as the percent reduction in the number of animals that pass the test in each treatment group relative to the corresponding vehicle-treated group. Percent Reduction=100×([Percent Pass in Vehicle Group]-[Percent Pass in Test Group]/Percent Pass in Vehicle Group). Test compounds which produce a 50% or greater reduction in the number passing the test were considered active. ED50 values of the active compounds were calculated by the method of probits (Finney, D. J. 1971. Probit Analysis. London: Cambridge University Press) and are listed in Tables 1 to 5.

[3] = biological target: benzodiazepine site of the GABA-A receptor; experiment: Benzodiazepine Receptor Binding Assay (inhibition of 3H-flunitrazepam binding); conditions: ca. 3 nM 3H-flunitrazepam
[4] = Suppression of metrazol-induced convulsions; format: in vivo, male CD1 mice; conditions: mice; for ED50: Mus musculus, 0.5 h
[5] = Suppression of anxiety (punished licking, conflict test) in the adult male rat; format: in vivo, male rats
How it was run: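 Rats were deprived of water for 48 h and food for 24 h, with unpunished training the day before. Testing began at expected peak drug activity: 3-min session, every 20th lick punished by a 0.2-s shock.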

[6] = Table 1, 25° C., 10-20 min, >10,000 = not active
[7] = Table 1, ip, clonic convulsions after sc CD90 metrazol, >30 = active dose not determined, read-out: Metrazol (ip) ED50
[8] = Table 1, ip, minimum effective dose, >10 = active dose not determined, read-out: Conflict (ip) MED
[9] = Table 3, parenteral, clonic convulsions, read-out: Antimetrazol ED50
[10] = Table 3, minimum effective dose, read-out: Conflict MED

Compound	percent antagonism [1] [%]	pIC50 [3, 6]	ED50 [4, 7] [mg/kg]	minimal effective dose [5, 8] [mg/kg]	further results
O=C(NCc1ccncc1)C1=C(O)CCn2c1nc1ccccc12 [CP 59, 1,2-Dihydro-3-hydroxy-N-(4-pyridylmethyl)pyrido(1,2-a)benzimidazole-4-carboxamide]	0	–	–	–	–
O=C1CCN2C(=C1C(=O)Nn1cnnc1)Nc1ccccc12 [compound 42]	–	5.57	> 10	> 10	ED50 [2]: 300 mg/kg
COc1ccc(NC(=O)C2=C(O)CCn3c2nc2ccccc23)cc1OC [CP 8, 1,2-Dihydro-N-(3,4-dimethoxyphenyl)-3-hydroxy-pyrido(1,2-a)benzimidazole-4-carboxamide]	17	–	–	–	–
NC(=O)c1ccc(NC(=O)C2=C3Nc4ccccc4N3CCC2=O)cc1 [compound 90]	–	6.96	> 10	> 10	ED50 [2]: > 10 mg/kg
O=C1CCN2C(=C1C(=O)Nc1ncncn1)Nc1ccccc12 [CP 53]	0	–	–	–	–
C[n+]1ccc(NC(=O)C2=C3Nc4ccccc4N3CCC2=O)cc1 [compound 56]	–	5.20	> 10	> 10	ED50 [2]: 100 mg/kg
N-(2-Fluorophenyl)-3-hydroxypyrido(1,2-a)benzimidazol-4-carboxamide [CP 139]	–	< 5.00	–	–	Horiz. Screen ED50 [2]: 300 mg/kg; Metrazol (ip) ED50 ([4]; Table 1, ip, clonic convulsions after sc CD90 metrazol, >30 = active dose not determined, 30 min): > 300 mg/kg; Conflict (ip) MED ([5]; Table 1, ip, minimum effective dose, >10 = active dose not determined): > 10 mg/kg
O=C(Nc1ccccc1F)C1=C(O)CCn2c1nc1cc(Cl)ccc12 [CP 113, 7-Chloro-1,2-dihydro-3-hydroxy-N-(2-fluorophenyl)-pyrido(1,2-a)benzimidazole-4-carboxamide]	0	–	–	–	–
CNC1=Nc2ccc(Cl)cc2C(c2ccccc2)=[N+]([O-])C1 [chlordiazepoxide, reference compound]	–	–	–	–	impairment of the ability to pass the inverted screen test ([1]; chlordiazepoxide 28 mg/kg, sc): impairs the ability of all animals to pass this test
CNC(=O)C1=C(O)CCn2c1nc1ccccc12 [CP 102, 1,2-Dihydro-3-hydroxy-N-methyl-pyrido(1,2-a)benzimidazole-4-carboxamide]	0	–	–	–	–
O=C1CCN2C(=C1C(=O)NC1CCNCC1)Nc1ccccc12 [compound 58]	–	< 5.00	> 10	> 10	ED50 [2]: 100 mg/kg
O=C1CCN2C(=C1C(=O)Nc1ccc([N+](=O)[O-])cc1)Nc1ccccc12 [CP 9]	30	–	–	–	–
O=C(NC1CCCCC1)C1=C(O)CCn2c1nc1ccccc12 [CP 7, N-Cyclohexyl-1,2-dihydro-3-hydroxy-pyrido(1,2-a)benzimidazole-4-carboxamide]	17	–	–	–	–
O=C1CCN2C(=C1C(=O)Nc1cccc(F)c1)Nc1ccccc12 [compound 95]	–	6.80	> 10	> 10	ED50 [2]: > 10 mg/kg
COc1ccc(NC(=O)C2=C(O)CCn3c2nc2cc(OC)ccc23)cc1 [CP 13, 1,2-Dihydro-3-hydroxy-7-methoxy-N-(4-methoxyphenyl)pyrido(1,2-a)benzimidazole-4-carboxamide]	100	–	–	–	–
COc1ccc2c(c1)nc1n2CCC(O)=C1C(=O)Nc1ccccc1 [CP 12, 1,2-Dihydro-3-hydroxy-7-methoxy-N-(phenyl)pyrido(1,2-a)benzimidazole-4-carboxamide]	92	–	–	–	–

Compound	percent antagonism [1] [%]	pIC50 [3, 6]	ED50 [4, 7] [mg/kg]	minimal effective dose [5, 8] [mg/kg]	further results
O=C(Nc1ccc(O)cc1)C1=C(O)CCn2c1nc1ccccc12 [CP 10, 1,2-Dihydro-3-hydroxy-N-(4-hydroxyphenyl)pyrido(1,2-a)benzimidazole-4-carboxamide]	30	–	–	–	–
O=C1CCN2C(=C1C(=O)Nc1ccccc1F)Nc1cc(F)ccc12 [compound 108]	–	8.70	< 1	10	–
COc1ccc2c(c1)NC1=C(C(=O)NC3CCCCC3)C(=O)CCN12 [compound 37]	–	6.10	10	10	–
O=C1CCN2C(=C1C(=O)NCc1ccncc1)Nc1ccccc12 [compound 59]	–	7.19	> 10	> 10	–
O=C1CCN2C(=C1C(=O)Nc1ccc3ncccc3c1)Nc1ccccc12 [compound 41]	–	6.89	> 30	> 10	–
O=C1CCN2C(=C1C(=O)Nc1ccccc1)Nc1ccc(Cl)cc12 [compound 84]	–	6.77	> 10	> 10	–
O=C1CCN2C(=C1C(=S)Nc1ccccc1)Nc1ccccc12 [compound 117]	–	–	–	–	pIC50 ([3]; Table 2): 6.44; ED50 ([4]; Table 2, ip, clonic convulsions, read-out: Antimetrazol (ip) ED50): > 10 mg/kg; minimal effective dose ([5]; Table 2, ip, minimum effective dose, read-out: Conflict (ip) MED): > 10 mg/kg
O=C1CCN2C(=C1C(=O)Nc1nncs1)Nc1ccccc12 [compound 69]	–	6.52	> 10	> 10	–
Cc1cccc(C)c1NC(=O)C1=C2Nc3ccccc3N2CCC1=O [compound 19]	–	5.11	> 30	> 10	ED50 [2]: 300 mg/kg
O=C1CCN2C(=C1C(=O)Nc1c(F)cccc1F)Nc1ccccc12 [compound 36]	–	8.55	1	0.1	–
O=C1CCN2C(=C1C(=O)Nc1c(F)cc(F)cc1F)Nc1cc(F)ccc12 [compound 107]	–	8.52	1	0.3	–
CCCN1C2=C(C(=O)Nc3c(F)cc(F)cc3F)C(=O)CCN2c2ccccc21 [compound 137]	–	–	–	–	pIC50 ([3]; Table 3): > 7.00; ED50 [4, 9]: 1 mg/kg; minimal effective dose [5, 10]: > 10 mg/kg
CCCCc1ccc(NC(=O)C2=C3Nc4ccccc4N3CCC2=O)cc1 [compound 17]	–	< 5.00	> 10	–	ED50 [2]: 300 mg/kg
Cc1cccc2c1NC1=C(C(=O)Nc3ccccc3)C(=O)CCN12 [compound 89]	–	8.00	1	> 10	–
CN1C2=C(C(=O)Nc3ccccc3)C(=O)CCN2c2ccccc21 [compound 120]	–	–	–	–	pIC50 ([3]; Table 3): 8.22; ED50 [4, 9]: < 1 mg/kg; minimal effective dose [5, 10]: < 1 mg/kg
O=C1CCN2C(=C1C(=O)Nc1c(F)cc(F)cc1Br)Nc1ccccc12 [compound 103]	–	5.92	> 10	> 10	–

Reference: US6218384A, “3-Oxo-pyrido(1,2-a)benzimidazole-4-carboxyl and 4-oxo-azepino(1,2-a)benzimidazole-5-carboxyl derivatives useful in treating central nervous system disorders” (Ortho-McNeil Pharmaceutical, Inc., priority 1997, dated 2001)
